Where two headings read alike, the source gives them in different places. Where a SMILES comes first, the peptide text is derived from it.
Legend:
[1] = tested on: Acinetobacter baumannii DSM 30008; assay type: cell-based
Description: (§1) Stock solutions were kept at +4° C., light protected.
(§2) The selective antimicrobial activities of the peptides were determined in 96-well plates (Greiner, polystyrene) by the standard NCCLS broth microdilution method (National Committee for Clinical Laboratory Standards 1993. Methods for dilution antimicrobial susceptibility tests for bacteria that grow aerobically, 3rd ed. Approved standard M7-A6; National Committee for Clinical laboratory standards, Wayne, Pa.) with slight modifications. Inocula of the microorganisms were diluted into Mueller-Hinton II (MH, cation adjusted) broth and compared with a 0.5 McFarland standard to give appr. 10^6 colony forming units (CFU)/mL. Aliquots (90 μl) of inoculate were added to 10 μl of MH broth+P-80 (Polysorbate 80, 0.002% final concentration) containing the peptide in serial two-fold dilutions. The following microorganisms were used to determine antibiotic selectivity of the peptides: Escherichia coli ATCC 25922, Klebsiella pneumoniae ATCC 13883 and Acinetobacter baumannii DSM 30008.

[2] = tested on: Escherichia coli ATCC 25922; assay type: cell-based
Description: as §1, §2

[3] = tested on: Klebsiella pneumoniae ATCC 13883; assay type: cell-based
Description: as §1, §2

[4] = tested on: human red blood cells (hRBC); experiment: Hemolysis: hemolytic activity at 100 μg/mL, 1 h at 37° C.
Description: Lyophilized peptides were weighed on a Microbalance (Mettler MT5) and dissolved in sterile water to a final concentration of 1 mg/mL. Stock solutions were kept at +4° C., light protected.
The peptides were tested for their hemolytic activity against human red blood cells (hRBC). Fresh hRBC were washed three times with phosphate buffered saline (PBS) and centrifuged for 5 min at 3000×g. Compounds (100 μg/mL) were incubated with 20% hRBC (v/v) for 1 h at 37° C. and shaking at 300 rpm. The final erythrocyte concentration was approximately 0.9×10^9 cells/mL. A value of 0% and 100% cell lyses, respectively, was determined by incubation of hRBC in the presence of PBS containing 0.001% acetic acid and 2.5% Triton X-100 in H2O, respectively. The samples were centrifuged, the supernatants were 8-fold diluted in PBS buffer and the optical densities (OD) were measured at 540 nm.
Percent hemolysis was calculated as follows: (OD540peptide/OD540H2O)×100%.

[5] = Mueller-Hinton II broth, 18-20 hours at 35° C.

Compound	Acinetobacter baumannii DSM 30008 MIC ([1]; DSM 30008) [µg/mL]	Escherichia coli ATCC 25922 MIC ([2]; ATCC 25922) [µg/mL]	Klebsiella pneumoniae ATCC 13883 MIC ([3]; ATCC 13883) [µg/mL]	Hemolysis at 100 μg/mL ([4]; red cells of human, 1 h, 100) [%]	Acinetobacter baumannii DSM 30008 MIC [1, 5] [µg/mL]	Escherichia coli ATCC 25922 MIC [2, 5] [µg/mL]	Klebsiella pneumoniae ATCC 13883 MIC [3, 5] [µg/mL]	Hemolysis at 100 μg/mL ([4]; 100 μg/mL, 20% hRBC, 1 h at 37° C.) [%]
CC(C)C[C@@H]1NC(=O)[C@H](CCCNC(=N)N)NC(=O)[C@@H](CCN)NC(=O)[C@H](Cc2ccc(O)cc2)NC(=O)[C@@H]2CSSC[C@H](NC1=O)C(=O)N[C@@H](Cc1ccc(O)cc1)C(=O)N[C@@H](C)C(=O)N[C@@H](CCCN)C(=O)N[C@H](CCN)C(=O)N[C@@H](CCN)C(=O)N[C@@H](Cc1c[nH]c3ccccc13)C(=O)N[C@@H](C)C(=O)N[C@@H](Cc1ccc(O)cc1)C(=O)N2 [Example 17, cyclo(-Leu-Cys-Tyr-Ala-Orn-^DDab-Dab-Trp-Ala-Tyr-Cys-Tyr-^DDab-Arg-)] (HELM PEPTIDE1{A.[Orn].[NCC[C@@H](N[*:1])C(=O)[*:2]].[Dab].W.A.Y.C.Y.[NCC[C@@H](N[*:1])C(=O)[*:2]].R.L.C.Y}$PEPTIDE1,PEPTIDE1,8:R3-13:R3|PEPTIDE1,PEPTIDE1,1:R1-14:R2$$$V2.0)	0.5	0.5	1	4	–	–	–	–
CC(C)C[C@@H]1NC(=O)[C@H](CCCNC(=N)N)NC(=O)[C@@H](CCN)NC(=O)[C@H](C(C)C)NC(=O)[C@@H]2CSSC[C@H](NC1=O)C(=O)N[C@@H](C(C)C)C(=O)N[C@@H](CC(N)=O)C(=O)N[C@@H](CCCN)C(=O)N[C@H](CCN)C(=O)N[C@@H](CCN)C(=O)N[C@@H](Cc1c[nH]c3ccccc13)C(=O)N[C@@H](CO)C(=O)N[C@@H](Cc1ccc(O)cc1)C(=O)N2 [Example 18, cyclo(-Leu-Cys-Val-Asn-Orn-^DDab-Dab-Trp-Ser-Tyr-Cys-Val-^DDab-Arg-)] (HELM PEPTIDE1{C.V.N.[Orn].[NCC[C@@H](N[*:1])C(=O)[*:2]].[Dab].W.S.Y.C.V.[NCC[C@@H](N[*:1])C(=O)[*:2]].R.L}$PEPTIDE1,PEPTIDE1,1:R3-10:R3|PEPTIDE1,PEPTIDE1,1:R1-14:R2$$$V2.0)	0.25	0.5	0.5	8	–	–	–	–
CC(C)C[C@@H]1NC(=O)[C@H](CCCNC(=N)N)NC(=O)[C@@H](CCN)NC(=O)[C@H](C(C)C)NC(=O)[C@@H]2CSSC[C@H](NC1=O)C(=O)N[C@@H](Cc1ccc(O)cc1)C(=O)N[C@@H](C)C(=O)N[C@@H](CCCN)C(=O)N[C@H](CCN)C(=O)N[C@@H](CCN)C(=O)N[C@@H](Cc1ccccc1)C(=O)N[C@@H](C)C(=O)N[C@@H](Cc1ccc(O)cc1)C(=O)N2 [Example 19, cyclo(-Leu-Cys-Tyr-Ala-Orn-^DDab-Dab-Phe-Ala-Tyr-Cys-Val-^DDab-Arg-)] (HELM PEPTIDE1{A.[Orn].[NCC[C@@H](N[*:1])C(=O)[*:2]].[Dab].F.A.Y.C.V.[NCC[C@@H](N[*:1])C(=O)[*:2]].R.L.C.Y}$PEPTIDE1,PEPTIDE1,8:R3-13:R3|PEPTIDE1,PEPTIDE1,1:R1-14:R2$$$V2.0)	1	0.5	1	1	–	–	–	–
CC(C)C[C@@H]1NC(=O)[C@H](CCCNC(=N)N)NC(=O)[C@@H](CCN)NC(=O)[C@H](C(C)C)NC(=O)[C@@H]2CSSC[C@H](NC1=O)C(=O)N[C@@H](C(C)C)C(=O)N[C@@H](C(C)C)C(=O)N[C@@H](CCCN)C(=O)N[C@H](CCN)C(=O)N[C@@H](CCN)C(=O)N[C@@H](Cc1c[nH]c3ccccc13)C(=O)N[C@@H](Cc1ccc(O)cc1)C(=O)N[C@@H](Cc1ccc(O)cc1)C(=O)N2 [Example 20, cyclo(-Leu-Cys-Val-Val-Orn-^DDab-Dab-Trp-Tyr-Tyr-Cys-Val-^DDab-Arg-)] (HELM PEPTIDE1{C.V.V.[Orn].[NCC[C@@H](N[*:1])C(=O)[*:2]].[Dab].W.Y.Y.C.V.[NCC[C@@H](N[*:1])C(=O)[*:2]].R.L}$PEPTIDE1,PEPTIDE1,1:R3-10:R3|PEPTIDE1,PEPTIDE1,1:R1-14:R2$$$V2.0)	0.25	1	1	7	–	–	–	–
CC(C)C[C@@H]1NC(=O)[C@H](CCCNC(=N)N)NC(=O)[C@@H](CCN)NC(=O)[C@H](C(C)C)NC(=O)[C@@H]2CSSC[C@H](NC1=O)C(=O)N[C@@H](Cc1ccc(O)cc1)C(=O)N[C@@H](C(C)C)C(=O)N[C@@H](CCCN)C(=O)N[C@H](CCN)C(=O)N[C@@H](CCN)C(=O)N[C@@H](Cc1c[nH]c3ccccc13)C(=O)N[C@@H](Cc1ccc(O)cc1)C(=O)N[C@@H](Cc1ccc(O)cc1)C(=O)N2 [Example 21, cyclo(-Leu-Cys-Tyr-Val-Orn-^DDab-Dab-Trp-Tyr-Tyr-Cys-Val-^DDab-Arg-)] (HELM PEPTIDE1{C.V.[NCC[C@@H](N[*:1])C(=O)[*:2]].R.L.C.Y.V.[Orn].[NCC[C@@H](N[*:1])C(=O)[*:2]].[Dab].W.Y.Y}$PEPTIDE1,PEPTIDE1,1:R3-6:R3|PEPTIDE1,PEPTIDE1,1:R1-14:R2$$$V2.0)	0.5	1	1	6	–	–	–	–
CC(C)C[C@@H]1NC(=O)[C@H](CCCNC(=N)N)NC(=O)[C@@H](CCN)NC(=O)[C@H](Cc2ccc(O)cc2)NC(=O)[C@@H]2CSSC[C@H](NC1=O)C(=O)N[C@@H](Cc1ccc(O)cc1)C(=O)N[C@@H](C(C)C)C(=O)N[C@@H](CCCN)C(=O)N[C@H](CCN)C(=O)N[C@@H](CCN)C(=O)N[C@@H](Cc1c[nH]c3ccccc13)C(=O)N[C@@H](Cc1ccc(O)cc1)C(=O)N[C@@H](Cc1ccc(O)cc1)C(=O)N2 [Example 22, cyclo(-Leu-Cys-Tyr-Val-Orn-^DDab-Dab-Trp-Tyr-Tyr-Cys-Tyr-^DDab-Arg-)] (HELM PEPTIDE1{C.Y.V.[Orn].[NCC[C@@H](N[*:1])C(=O)[*:2]].[Dab].W.Y.Y.C.Y.[NCC[C@@H](N[*:1])C(=O)[*:2]].R.L}$PEPTIDE1,PEPTIDE1,1:R3-10:R3|PEPTIDE1,PEPTIDE1,1:R1-14:R2$$$V2.0)	0.5	0.5	1	6	–	–	–	–
CC(C)C[C@@H]1NC(=O)[C@H](CCCNC(=N)N)NC(=O)[C@@H](CCN)NC(=O)[C@H](C(C)C)NC(=O)[C@@H]2CSSC[C@H](NC1=O)C(=O)N[C@@H](Cc1ccc(O)cc1)C(=O)N[C@@H](C)C(=O)N[C@@H](CCCN)C(=O)N[C@H](CCN)C(=O)N[C@@H](CCN)C(=O)N[C@@H](Cc1c[nH]c3ccccc13)C(=O)N[C@@H](C)C(=O)N[C@@H](Cc1ccc(O)cc1)C(=O)N2 [Example 23, cyclo(-Leu-Cys-Tyr-Ala-Orn-^DDab-Dab-Trp-Ala-Tyr-Cys-Val-^DDab-Arg-)] (HELM PEPTIDE1{A.[Orn].[NCC[C@@H](N[*:1])C(=O)[*:2]].[Dab].W.A.Y.C.V.[NCC[C@@H](N[*:1])C(=O)[*:2]].R.L.C.Y}$PEPTIDE1,PEPTIDE1,8:R3-13:R3|PEPTIDE1,PEPTIDE1,1:R1-14:R2$$$V2.0)	0.75	2	1	1	–	–	–	–
CC(C)[C@@H]1NC(=O)[C@@H]2CSSC[C@H](NC(=O)[C@H](Cc3ccc(O)cc3)NC(=O)[C@H]([C@@H](C)O)NC(=O)[C@H](Cc3c[nH]c4ccccc34)NC(=O)[C@H](CCN)NC(=O)[C@@H](CCN)NC(=O)[C@H](CCCN)NC(=O)[C@H]([C@@H](C)O)NC1=O)C(=O)N[C@@H](CCN)C(=O)N[C@H](CCN)C(=O)N[C@@H](CCCNC(=N)N)C(=O)N[C@@H](Cc1ccccc1)C(=O)N2 [Example 24, cyclo(-Phe-Cys-Val-Thr-Orn-^DDab-Dab-Trp-Thr-Tyr-Cys-Dab-^DDab-Arg-)] (HELM PEPTIDE1{C.[Dab].[NCC[C@@H](N[*:1])C(=O)[*:2]].R.F.C.V.T.[Orn].[NCC[C@@H](N[*:1])C(=O)[*:2]].[Dab].W.T.Y}$PEPTIDE1,PEPTIDE1,1:R3-6:R3|PEPTIDE1,PEPTIDE1,1:R1-14:R2$$$V2.0)	–	–	–	–	2	1	2	0

Source: patent US11753446B2, “Beta-hairpin peptidomimetics” (POLYPHOR AG, priority 2014, dated 2023)
